Measured values published in ChEMBL document CHEMBL5050828, “Inhibitors of DUX4 induction for regulation of muscle function” (2021).
Activity calls are given as the source filed them. No cut-off for these calls is given here.

Assays:
[1] = Downregulation of DUX4 expression in facioscapulohumeral muscular dystrophy (FSHD) affected human embryonic stem cell (hESC)-derived skeletal myoblasts and measured by immunocytochemistry analysis; type: functional, cell-based; details: Myoblast
[2] = test system: Myoblast; assay: Downregulation of DUX4 expression in facioscapulohumeral muscular dystrophy (FSHD) affected human embryonic stem cell (hESC)-derived skeletal myoblasts at 100 nM and measured by immunocytochemistry analysis relative to control; type: functional, cell-based
[3] = test system: Myoblast; assay: Effect on myosin heavy chain expression in facioscapulohumeral muscular dystrophy (FSHD) affected human embryonic stem cell (hESC)-derived skeletal myoblasts at 100 nM and measured by immunocytochemistry analysis relative to control; type: functional, cell-based
[4] = test system: Myoblast; assay: Effect on nuclei count in facioscapulohumeral muscular dystrophy (FSHD) affected human embryonic stem cell (hESC)-derived skeletal myoblasts at 100 nM and measured by immunocytochemistry analysis relative to control; type: functional, cell-based
[5] = test system: Myoblast; assay: Downregulation of DUX4 expression in facioscapulohumeral muscular dystrophy (FSHD) affected human embryonic stem cell (hESC)-derived skeletal myoblasts at 0.01 to 3 uM and measured by immunocytochemistry analysis relative to control; type: functional, cell-based; details: dose 0.01-3 µM
[6] = test system: Myoblast; assay: Effect on myosin heavy chain expression in facioscapulohumeral muscular dystrophy (FSHD) affected human embryonic stem cell (hESC)-derived skeletal myoblasts at 0.01 to 3 uM and measured by immunocytochemistry analysis relative to control; type: functional, cell-based; details: dose 0.01-3 µM
[7] = Downregulation of DUX4 expression in facioscapulohumeral muscular dystrophy (FSHD) primary pateint derived myoblasts and measured by immunocytochemistry analysis; type: functional, cell-based; details: Homo sapiens, Myoblast
[8] = test system: Myoblast; assay: Rescue of apoptosis in facioscapulohumeral muscular dystrophy (FSHD) primary pateint derived myoblasts at 0.01 to 3 uM assessed as decrease in caspase 3/7 activation and measured by live cell imaging method; type: functional, cell-based; details: Homo sapiens, dose 0.01-3 µM
[9] = test system: Myoblast; assay: Rescue of cell death in facioscapulohumeral muscular dystrophy (FSHD) primary pateint derived myoblasts at 0.01 to 3 uM and measured by live cell imaging method; type: functional, cell-based; details: Homo sapiens, dose 0.01-3 µM
[10] = test system: Myoblast; assay: Effect on DUX4-target gene expression in facioscapulohumeral muscular dystrophy (FSHD) primary pateint derived myoblasts at 0.03 to 3 microM assessed as decrease in CCNA1 expression; type: functional, cell-based; details: Homo sapiens, dose 0.03-3 µM
[11] = test system: Myoblast; assay: Effect on DUX4-target gene expression in facioscapulohumeral muscular dystrophy (FSHD) primary pateint derived myoblasts at 0.03 to 3 microM assessed as decrease in KHDC1L expression; type: functional, cell-based; details: Homo sapiens, dose 0.03-3 µM
[12] = test system: Myoblast; assay: Effect on DUX4-target gene expression in facioscapulohumeral muscular dystrophy (FSHD) primary pateint derived myoblasts at 0.03 to 3 microM assessed as decrease in LEUTX expression; type: functional, cell-based; details: Homo sapiens, dose 0.03-3 µM
[13] = test system: Myoblast; assay: Effect on DUX4-target gene expression in facioscapulohumeral muscular dystrophy (FSHD) primary pateint derived myoblasts at 0.03 to 3 microM assessed as decrease in MBD3L2 expression; type: functional, cell-based; details: Homo sapiens, dose 0.03-3 µM
[14] = test system: Myoblast; assay: Effect on DUX4-target gene expression in facioscapulohumeral muscular dystrophy (FSHD) primary pateint derived myoblasts at 0.03 to 3 microM assessed as decrease in PRAMEF2 expression; type: functional, cell-based; details: Homo sapiens, dose 0.03-3 µM
[15] = test system: Myoblast; assay: Effect on DUX4-target gene expression in facioscapulohumeral muscular dystrophy (FSHD) primary pateint derived myoblasts at 0.03 to 3 microM assessed as decrease in PRAMEF6 expression; type: functional, cell-based; details: Homo sapiens, dose 0.03-3 µM
[16] = test system: Myoblast; assay: Effect on DUX4-target gene expression in facioscapulohumeral muscular dystrophy (FSHD) primary pateint derived myoblasts at 0.03 to 3 microM assessed as decrease in SPRYD5 expression; type: functional, cell-based; details: Homo sapiens, dose 0.03-3 µM
[17] = test system: Myoblast; assay: Effect on DUX4-target gene expression in facioscapulohumeral muscular dystrophy (FSHD) primary pateint derived myoblasts at 0.03 to 3 microM assessed as decrease in TRIM43 expression; type: functional, cell-based; details: Homo sapiens, dose 0.03-3 µM
[18] = test system: Myoblast; assay: Effect on DUX4-target gene expression in facioscapulohumeral muscular dystrophy (FSHD) primary pateint derived myoblasts at 0.03 to 3 microM assessed as decrease in TRIM49 expression; type: functional, cell-based; details: Homo sapiens, dose 0.03-3 µM
[19] = test system: Myoblast; assay: Effect on DUX4-target gene expression in facioscapulohumeral muscular dystrophy (FSHD) primary pateint derived myoblasts at 0.03 to 3 microM assessed as decrease in ZNF296 expression; type: functional, cell-based; details: Homo sapiens, dose 0.03-3 µM
[20] = test system: Myoblast; assay: Effect on DUX4-target gene expression in facioscapulohumeral muscular dystrophy (FSHD) primary pateint derived myoblasts at 0.03 to 3 microM assessed as decrease in ZSCAN4 expression; type: functional, cell-based; details: Homo sapiens, dose 0.03-3 µM
[21] = test system: Myoblast; assay: Effect on myotube gene expression in facioscapulohumeral muscular dystrophy (FSHD) primary pateint derived myoblasts at 0.03 to 3 microM assessed as decrease in CKM expression; type: functional, cell-based; details: Homo sapiens, dose 0.03-3 µM
[22] = test system: Myoblast; assay: Effect on myotube gene expression in facioscapulohumeral muscular dystrophy (FSHD) primary pateint derived myoblasts at 0.03 to 3 microM assessed as decrease in DES expression; type: functional, cell-based; details: Homo sapiens, dose 0.03-3 µM
[23] = test system: Myoblast; assay: Effect on myotube gene expression in facioscapulohumeral muscular dystrophy (FSHD) primary pateint derived myoblasts at 0.03 to 3 microM assessed as decrease in DMD expression; type: functional, cell-based; details: Homo sapiens, dose 0.03-3 µM
[24] = test system: Myoblast; assay: Effect on myotube gene expression in facioscapulohumeral muscular dystrophy (FSHD) primary pateint derived myoblasts at 0.03 to 3 microM assessed as decrease in MYH3 expression; type: functional, cell-based; details: Homo sapiens, dose 0.03-3 µM
[25] = test system: Myoblast; assay: Effect on myotube gene expression in facioscapulohumeral muscular dystrophy (FSHD) primary pateint derived myoblasts at 0.03 to 3 microM assessed as decrease in MYH8 expression; type: functional, cell-based; details: Homo sapiens, dose 0.03-3 µM
[26] = test system: Myoblast; assay: Effect on myotube gene expression in facioscapulohumeral muscular dystrophy (FSHD) primary pateint derived myoblasts at 0.03 to 3 microM assessed as decrease in MYOG expression; type: functional, cell-based; details: Homo sapiens, dose 0.03-3 µM
[27] = Half-life in male CD-1 mouse at 10 mg/kg, IM measured by LC-MS/MS analysis; type: ADME, organism-based; details: in vivo
[28] = Half-life in male CD-1 mouse at 50 mg/kg, IM measured by LC-MS/MS analysis; type: ADME, organism-based; details: in vivo
[29] = Brain concentration in male CD-1 mouse at 10 mg/kg, IM administered as single dose and measured by LC-MS/MS analysis; type: ADME, organism-based; details: in vivo, BLD = below limit of detection
[30] = test system: Myoblast; assay: Effect on DNA methylation levels at 4qA regions of chromosome 4 in myotubes of facioscapulohumeral muscular dystrophy (FSHD) affected human embryonic stem cell (hESC)-derived skeletal myoblasts at 0.01 to 1 uM; type: functional, cell-based; details: dose 0.01-1 µM
[31] = test system: Myoblast; assay: Effect on DNA methylation levels at D4Z4 regions of chromosome 4 in myotubes of facioscapulohumeral muscular dystrophy (FSHD) affected human embryonic stem cell (hESC)-derived skeletal myoblasts at 0.01 to 1 uM; type: functional, cell-based; details: dose 0.01-1 µM
[32] = test system: Myoblast; assay: Effect on PRKDC expression in facioscapulohumeral muscular dystrophy (FSHD) primary pateint derived myoblasts at 0.01 to 1 uM and measured by RT-PCR analysis; type: functional, cell-based; details: Homo sapiens, dose 0.01-1 µM
[33] = test system: Myoblast; assay: Effect on SRC expression in facioscapulohumeral muscular dystrophy (FSHD) primary pateint derived myoblasts at 0.01 to 1 uM and measured by RT-PCR analysis; type: functional, cell-based; details: Homo sapiens, dose 0.01-1 µM
[34] = target: DNA-dependent protein kinase catalytic subunit (Homo sapiens) (UniProt P78527); assay: Inhibition of PRKDC in facioscapulohumeral muscular dystrophy (FSHD) primary pateint derived myoblasts at 0.01 to 1 uM and measured by immunofluorescence method; type: cell-based; details: Myoblast, dose 0.01-1 µM
DNA-dependent protein kinase catalytic subunit (Homo sapiens), sequence (P78527 whole entry): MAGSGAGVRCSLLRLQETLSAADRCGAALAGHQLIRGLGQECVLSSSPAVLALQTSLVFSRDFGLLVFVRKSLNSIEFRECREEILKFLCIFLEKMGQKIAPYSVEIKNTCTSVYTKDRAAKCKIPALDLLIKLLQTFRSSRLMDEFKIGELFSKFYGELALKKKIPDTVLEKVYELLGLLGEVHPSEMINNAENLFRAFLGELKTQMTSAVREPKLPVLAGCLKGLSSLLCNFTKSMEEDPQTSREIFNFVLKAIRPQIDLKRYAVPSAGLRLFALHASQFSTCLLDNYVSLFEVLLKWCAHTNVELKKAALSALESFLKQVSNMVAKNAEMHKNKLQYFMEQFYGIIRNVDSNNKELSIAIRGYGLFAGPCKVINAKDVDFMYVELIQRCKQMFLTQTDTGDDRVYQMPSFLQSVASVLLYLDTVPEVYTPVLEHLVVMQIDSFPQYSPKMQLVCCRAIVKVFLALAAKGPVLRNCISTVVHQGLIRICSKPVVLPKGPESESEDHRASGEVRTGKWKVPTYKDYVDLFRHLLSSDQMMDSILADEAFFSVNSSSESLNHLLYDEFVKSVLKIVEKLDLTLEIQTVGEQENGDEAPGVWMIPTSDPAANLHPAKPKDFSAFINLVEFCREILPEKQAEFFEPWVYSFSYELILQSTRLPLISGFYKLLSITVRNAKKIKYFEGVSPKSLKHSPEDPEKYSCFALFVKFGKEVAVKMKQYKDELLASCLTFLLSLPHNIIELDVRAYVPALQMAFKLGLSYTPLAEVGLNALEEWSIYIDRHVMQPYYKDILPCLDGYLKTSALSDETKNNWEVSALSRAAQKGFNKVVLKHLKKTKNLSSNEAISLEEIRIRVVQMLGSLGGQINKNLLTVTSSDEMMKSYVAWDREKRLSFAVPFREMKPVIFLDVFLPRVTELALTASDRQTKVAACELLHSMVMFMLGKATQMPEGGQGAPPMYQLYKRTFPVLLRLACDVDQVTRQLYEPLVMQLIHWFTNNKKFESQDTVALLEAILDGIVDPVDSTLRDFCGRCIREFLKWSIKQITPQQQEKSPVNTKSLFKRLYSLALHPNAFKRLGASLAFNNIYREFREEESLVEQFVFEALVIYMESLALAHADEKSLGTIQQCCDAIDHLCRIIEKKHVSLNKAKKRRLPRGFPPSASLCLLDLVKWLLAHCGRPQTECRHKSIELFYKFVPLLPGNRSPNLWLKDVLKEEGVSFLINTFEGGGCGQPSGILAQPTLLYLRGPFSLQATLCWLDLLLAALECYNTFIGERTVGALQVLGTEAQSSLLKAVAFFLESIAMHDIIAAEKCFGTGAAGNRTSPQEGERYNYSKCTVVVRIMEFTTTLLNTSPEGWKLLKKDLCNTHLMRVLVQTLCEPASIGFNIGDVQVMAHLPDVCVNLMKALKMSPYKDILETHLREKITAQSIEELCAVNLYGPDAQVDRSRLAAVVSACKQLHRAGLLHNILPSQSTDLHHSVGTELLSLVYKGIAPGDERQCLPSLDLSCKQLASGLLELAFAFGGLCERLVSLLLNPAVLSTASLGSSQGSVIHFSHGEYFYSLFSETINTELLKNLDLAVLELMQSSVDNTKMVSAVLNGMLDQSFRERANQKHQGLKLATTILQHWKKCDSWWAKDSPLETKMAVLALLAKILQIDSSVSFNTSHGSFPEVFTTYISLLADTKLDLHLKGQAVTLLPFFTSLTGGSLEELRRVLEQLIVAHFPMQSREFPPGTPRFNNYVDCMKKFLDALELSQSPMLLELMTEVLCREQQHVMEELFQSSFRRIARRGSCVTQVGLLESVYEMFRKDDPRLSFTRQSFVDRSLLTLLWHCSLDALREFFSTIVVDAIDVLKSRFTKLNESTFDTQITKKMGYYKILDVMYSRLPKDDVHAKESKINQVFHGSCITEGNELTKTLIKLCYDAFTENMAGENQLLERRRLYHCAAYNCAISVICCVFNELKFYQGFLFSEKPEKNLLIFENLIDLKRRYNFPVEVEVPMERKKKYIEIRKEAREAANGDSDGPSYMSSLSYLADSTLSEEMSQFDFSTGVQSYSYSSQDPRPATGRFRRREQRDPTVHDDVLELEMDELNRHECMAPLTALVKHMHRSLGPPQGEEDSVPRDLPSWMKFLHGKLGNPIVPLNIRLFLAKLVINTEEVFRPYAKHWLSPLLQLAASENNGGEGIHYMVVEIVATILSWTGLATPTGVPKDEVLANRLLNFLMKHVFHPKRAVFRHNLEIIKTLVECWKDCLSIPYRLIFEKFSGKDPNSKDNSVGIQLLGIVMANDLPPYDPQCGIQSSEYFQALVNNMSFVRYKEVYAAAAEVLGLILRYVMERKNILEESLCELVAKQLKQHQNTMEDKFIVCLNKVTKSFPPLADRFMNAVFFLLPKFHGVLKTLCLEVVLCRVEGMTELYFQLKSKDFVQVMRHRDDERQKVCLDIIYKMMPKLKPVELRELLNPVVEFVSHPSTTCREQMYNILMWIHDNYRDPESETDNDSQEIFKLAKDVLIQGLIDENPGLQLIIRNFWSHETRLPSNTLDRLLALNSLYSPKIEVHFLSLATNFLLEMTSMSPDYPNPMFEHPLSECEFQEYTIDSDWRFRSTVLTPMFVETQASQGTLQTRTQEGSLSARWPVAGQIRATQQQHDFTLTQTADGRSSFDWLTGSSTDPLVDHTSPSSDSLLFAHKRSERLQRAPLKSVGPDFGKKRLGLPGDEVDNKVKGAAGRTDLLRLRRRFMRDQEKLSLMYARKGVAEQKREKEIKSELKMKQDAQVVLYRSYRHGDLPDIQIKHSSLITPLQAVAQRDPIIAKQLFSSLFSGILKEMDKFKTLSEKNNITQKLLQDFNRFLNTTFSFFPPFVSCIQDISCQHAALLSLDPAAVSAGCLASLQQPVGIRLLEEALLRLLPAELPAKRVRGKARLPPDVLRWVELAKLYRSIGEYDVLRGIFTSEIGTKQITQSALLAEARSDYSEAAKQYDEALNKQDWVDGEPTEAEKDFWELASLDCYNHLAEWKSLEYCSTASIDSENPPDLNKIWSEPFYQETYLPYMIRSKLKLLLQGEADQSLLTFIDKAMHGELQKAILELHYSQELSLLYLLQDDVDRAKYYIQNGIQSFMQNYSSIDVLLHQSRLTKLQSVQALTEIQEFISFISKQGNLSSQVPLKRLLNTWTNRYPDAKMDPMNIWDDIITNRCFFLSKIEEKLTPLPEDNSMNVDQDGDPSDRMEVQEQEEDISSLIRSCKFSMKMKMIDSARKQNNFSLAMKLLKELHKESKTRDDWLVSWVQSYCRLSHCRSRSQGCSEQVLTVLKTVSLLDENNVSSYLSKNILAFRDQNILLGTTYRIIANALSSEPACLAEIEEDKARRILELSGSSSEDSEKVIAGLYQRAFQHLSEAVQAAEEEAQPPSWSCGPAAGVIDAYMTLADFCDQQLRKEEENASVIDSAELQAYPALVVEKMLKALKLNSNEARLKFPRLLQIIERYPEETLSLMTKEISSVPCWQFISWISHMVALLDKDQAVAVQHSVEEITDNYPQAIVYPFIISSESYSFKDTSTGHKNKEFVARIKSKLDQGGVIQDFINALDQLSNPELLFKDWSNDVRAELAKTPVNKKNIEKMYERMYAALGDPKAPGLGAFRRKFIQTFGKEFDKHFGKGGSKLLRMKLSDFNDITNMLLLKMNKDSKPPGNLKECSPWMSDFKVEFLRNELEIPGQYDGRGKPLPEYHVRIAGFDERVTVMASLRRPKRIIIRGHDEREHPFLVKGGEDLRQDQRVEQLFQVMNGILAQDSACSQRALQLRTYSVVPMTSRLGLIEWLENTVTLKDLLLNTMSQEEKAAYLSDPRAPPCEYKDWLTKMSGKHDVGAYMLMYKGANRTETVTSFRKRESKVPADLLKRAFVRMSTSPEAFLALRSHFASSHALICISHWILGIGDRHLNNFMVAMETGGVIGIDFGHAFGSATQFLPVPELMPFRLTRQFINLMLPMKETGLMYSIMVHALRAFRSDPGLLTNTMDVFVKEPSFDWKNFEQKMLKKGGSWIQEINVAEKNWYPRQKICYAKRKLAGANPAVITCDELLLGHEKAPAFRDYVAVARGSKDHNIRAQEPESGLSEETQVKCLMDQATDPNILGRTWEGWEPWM

[35] = target: Proto-oncogene tyrosine-protein kinase Src (Homo sapiens) (UniProt P12931); assay: Inhibition of SRC in facioscapulohumeral muscular dystrophy (FSHD) primary pateint derived myoblasts at 0.01 to 1 uM and measured by immunofluorescence method; type: cell-based; details: Myoblast, dose 0.01-1 µM
Proto-oncogene tyrosine-protein kinase Src (Homo sapiens), sequence (P12931 2-536 limits assumed): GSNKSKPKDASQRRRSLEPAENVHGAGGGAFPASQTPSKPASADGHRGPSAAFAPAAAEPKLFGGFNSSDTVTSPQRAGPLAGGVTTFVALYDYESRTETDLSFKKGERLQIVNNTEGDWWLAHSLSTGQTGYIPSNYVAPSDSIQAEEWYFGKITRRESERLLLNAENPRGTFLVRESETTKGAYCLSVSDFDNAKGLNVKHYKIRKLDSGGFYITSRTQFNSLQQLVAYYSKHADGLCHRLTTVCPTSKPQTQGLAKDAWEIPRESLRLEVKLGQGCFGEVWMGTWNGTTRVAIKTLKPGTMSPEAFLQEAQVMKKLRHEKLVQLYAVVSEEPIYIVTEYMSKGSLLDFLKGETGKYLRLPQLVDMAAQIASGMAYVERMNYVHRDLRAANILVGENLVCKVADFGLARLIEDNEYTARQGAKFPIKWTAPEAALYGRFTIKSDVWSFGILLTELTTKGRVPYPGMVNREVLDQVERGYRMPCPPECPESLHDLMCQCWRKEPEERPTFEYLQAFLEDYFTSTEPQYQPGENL

Question: Which EC50 [1] does the source give for `CNC(=O)c1cc(Oc2ccc(NC(=O)Nc3cc(C(C)(C)C)nn3-c3ccc4ncccc4c3)c(F)c2)ccn1` [REBASTINIB] here?
Answer: 37.9 µM

Question: What about the Activity [2] of the same compound?
Answer: Active

Question: And the Activity [3]?
Answer: inactive

Question: And the Activity [4]?
Answer: inactive

Question: And the Activity [5]?
Answer: Active

Question: And the Activity [6]?
Answer: inactive

Question: And the IC50 [7]?
Answer: 0.1 µM

Question: What about the Activity [8] of the same compound?
Answer: Active

Question: What about the Activity [9] of the same compound?
Answer: Active

Question: What about the Activity [10] of the same compound?
Answer: Active

Question: What about the Activity [11] of the same compound?
Answer: Active

Question: What about the Activity [12] of the same compound?
Answer: Active

Question: And the Activity [13]?
Answer: Active

Question: And the Activity [14]?
Answer: Active

Question: And the Activity [15]?
Answer: Active

Question: And the Activity [16]?
Answer: Active

Question: What about the Activity [17] of the same compound?
Answer: Active

Question: And the Activity [18]?
Answer: Active

Question: What about the Activity [19] of the same compound?
Answer: Active

Question: What about the Activity [20] of the same compound?
Answer: Active

Question: What about the Activity [21] of the same compound?
Answer: inactive

Question: And the Activity [22]?
Answer: inactive

Question: What about the Activity [23] of the same compound?
Answer: inactive

Question: What about the Activity [24] of the same compound?
Answer: inactive

Question: What about the Activity [25] of the same compound?
Answer: inactive

Question: What about the Activity [26] of the same compound?
Answer: inactive

Question: What about the half-life [27] of the same compound?
Answer: 5.59 h

Question: And the half-life [28]?
Answer: 8.1 h

Question: And the Drug uptake [29]?
Answer: Bld

Question: And the Activity [30]?
Answer: inactive

Question: And the Activity [31]?
Answer: inactive

Question: And the Activity [32]?
Answer: inactive

Question: And the Activity [33]?
Answer: inactive

Question: And the inhibition [34]?
Answer: Active

Question: And the inhibition [35]?
Answer: Active
